The test system of assay [1] is BJ. Description: BJ-TERT fibroblast viability loss – cell-based, RAS-independent, luminescence, dose response (AID 1933). It is filed as functional. To be noted: Homo sapiens.
In assay [2] the test system is BJ. Description: cells. The class given is functional, cell-based. To be noted: Homo sapiens.
Assay [3] has as its system BJ. Description: BJ-TERT-LT-ST fibroblast viability loss – cell-based, RAS-independent, luminescence, dose response (AID 1935).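 Further: BJ fibroblasts immortalized with TERT plus LT and ST oncogenes.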 It is filed as functional. To be noted: Homo sapiens.
A short description of assay [4]: DRD fibroblast viability loss – cell-based, non-viral oncogenic, luminescence, dose response (AID 1934). The class given is functional. To be noted: Homo sapiens.
Assay [5] concerns the target T1, Microphthalmia-associated transcription factor (Homo sapiens, UniProt O75030).
T1 sequence (O75030 whole entry): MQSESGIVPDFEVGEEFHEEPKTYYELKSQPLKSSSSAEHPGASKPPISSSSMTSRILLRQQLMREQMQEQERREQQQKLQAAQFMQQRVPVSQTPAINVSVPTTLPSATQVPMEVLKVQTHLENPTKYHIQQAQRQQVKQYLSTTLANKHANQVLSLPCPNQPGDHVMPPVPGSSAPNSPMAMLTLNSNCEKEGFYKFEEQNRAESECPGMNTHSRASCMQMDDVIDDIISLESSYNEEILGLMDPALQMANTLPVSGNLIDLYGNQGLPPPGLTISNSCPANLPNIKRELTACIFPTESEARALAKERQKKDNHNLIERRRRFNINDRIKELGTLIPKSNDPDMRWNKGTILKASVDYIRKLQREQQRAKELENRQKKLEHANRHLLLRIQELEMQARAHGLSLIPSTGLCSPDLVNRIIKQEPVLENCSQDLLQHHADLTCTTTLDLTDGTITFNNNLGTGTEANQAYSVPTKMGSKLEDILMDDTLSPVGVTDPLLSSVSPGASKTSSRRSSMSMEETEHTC
The assay is described as follows: reducers of TRPM1 reporter luminescence, concentration series – cell-based, SK-MEL-5, cherry-picked, set 3, MITF inhibitor project, dose response (AID 493073).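 Further: SK-MEL-5 melanoma cells with luciferase driven by the MITF target TRPM1 promoter.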 It is filed as functional.

Assay [6] deals with A-375. The assay is described as follows: MITF: Counter assay: A375 proliferation Measured in Cell-Based System Using Plate Reader - 2084-03_Inhibitor_Dose_DryPowder_Activity. [Related pubchem assays (depositor defined):AID488944]. The class given is functional. To be noted: Homo sapiens.
The nature of assay [7]: reduction of Shn3 3'UTR-driven luciferase in osteoblasts – cell-based, Clone20 osteoblasts, firefly luciferase, cherry-picked, dose response (AID 624132).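 Further: firefly luciferase luminescence from reporter carrying the Shn3 3'UTR in osteoblasts.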 It is filed as functional.
A short description of assay [8]: loss of viability in HepG2 cells – cell-based, CellTiter-Glo, cherry-picked, cytotoxicity control for Shn3 inhibitor project, dose response (AID 624134). It is filed as functional.
Assay [9] can be described thus: non-specific 3'UTR reporter inhibition in Clone20-Shn3RL – cell-based, Renilla luciferase, cherry-picked, counter-screen for Shn3 inhibitor project, dose response (AID 624133). It is filed as functional.
For the next assay, the target named is Keap1/Nrf2 (Homo sapiens, UniProt Q14145). Description: disruptors of Keap1 binding to Nrf2 peptide – biochemical, fluorescence polarization, cherry-picked samples, dose response (AID 588683).
The target of a further assay is Beta-galactosidase (Escherichia coli, UniProt Q8VNN2). The assay is described as follows: detection-enzyme interference by beta-gal modulators – biochemical, E. coli enzyme, set 3, artefact control for CCR6 antagonist project, dose response (AID 504712). The class given is functional.
The target in a further assay is Apelin receptor (Homo sapiens, UniProt P35414). Description: apelin receptor antagonists, arrestin read-out – cell-based, luminescent, enzyme-fragment complementation, selectivity assay for CCR6 antagonist project, SAR follow-up (AID 588359). The class given is functional.
Assay [10] in a line: viability of PTEN-deleted HCT116 cells – cell-based, HCT116 PTEN knockout, dose response (AID 1047).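 Further: HCT116 colon tumor cells with PTEN knocked out; cells exposed to compound for 60 hours before readout; potency for loss of cell viability measured by luminescence.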 It is filed as functional.
Assay [11] in a line: viability of HCT116 lacking mutant beta-catenin – cell-based, human colon tumor, dose response (AID 1045).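 Further: HCT116 colon tumor cells with beta catenin knocked out; cells exposed to compound for 60 hours.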 It is filed as functional.
Assay [12] in a line: Luminescence Cell-Based Dose Retest to Confirm Inhibitors of Cancer Stem Cells. [Related pubchem assays (depositor defined):AID2717, AID2721]. To be noted: Homo sapiens. It is filed as functional.
Assay [13] deals with A-375. The assay is described as follows: proliferation inhibition in MITF-low A375 cells – cell-based, cherry-pick samples, set 2, counter-screen for MITF modulator project, dose response (AID 540335). It is filed as functional. The conditions noted are these: Homo sapiens.

Activity calls are given as the source filed them.

Keap1/Nrf2, sequence (Q16236 whole entry): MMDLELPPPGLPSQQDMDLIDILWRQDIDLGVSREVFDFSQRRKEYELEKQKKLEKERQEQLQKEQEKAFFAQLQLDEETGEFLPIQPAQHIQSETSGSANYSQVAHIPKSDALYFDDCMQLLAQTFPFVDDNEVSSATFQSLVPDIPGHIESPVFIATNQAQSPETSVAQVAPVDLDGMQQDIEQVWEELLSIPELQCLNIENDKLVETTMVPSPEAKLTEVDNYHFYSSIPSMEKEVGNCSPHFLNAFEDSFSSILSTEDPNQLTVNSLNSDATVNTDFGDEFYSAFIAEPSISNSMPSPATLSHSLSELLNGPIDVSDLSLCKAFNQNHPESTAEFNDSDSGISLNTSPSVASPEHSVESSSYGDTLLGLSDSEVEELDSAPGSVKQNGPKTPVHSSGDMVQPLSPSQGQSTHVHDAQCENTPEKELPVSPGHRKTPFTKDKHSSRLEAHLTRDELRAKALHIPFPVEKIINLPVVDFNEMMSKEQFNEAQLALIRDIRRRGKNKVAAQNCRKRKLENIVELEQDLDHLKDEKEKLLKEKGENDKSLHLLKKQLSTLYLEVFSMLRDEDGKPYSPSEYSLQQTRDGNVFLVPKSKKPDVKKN
Keap1/Nrf2, sequence (Q14145 whole entry): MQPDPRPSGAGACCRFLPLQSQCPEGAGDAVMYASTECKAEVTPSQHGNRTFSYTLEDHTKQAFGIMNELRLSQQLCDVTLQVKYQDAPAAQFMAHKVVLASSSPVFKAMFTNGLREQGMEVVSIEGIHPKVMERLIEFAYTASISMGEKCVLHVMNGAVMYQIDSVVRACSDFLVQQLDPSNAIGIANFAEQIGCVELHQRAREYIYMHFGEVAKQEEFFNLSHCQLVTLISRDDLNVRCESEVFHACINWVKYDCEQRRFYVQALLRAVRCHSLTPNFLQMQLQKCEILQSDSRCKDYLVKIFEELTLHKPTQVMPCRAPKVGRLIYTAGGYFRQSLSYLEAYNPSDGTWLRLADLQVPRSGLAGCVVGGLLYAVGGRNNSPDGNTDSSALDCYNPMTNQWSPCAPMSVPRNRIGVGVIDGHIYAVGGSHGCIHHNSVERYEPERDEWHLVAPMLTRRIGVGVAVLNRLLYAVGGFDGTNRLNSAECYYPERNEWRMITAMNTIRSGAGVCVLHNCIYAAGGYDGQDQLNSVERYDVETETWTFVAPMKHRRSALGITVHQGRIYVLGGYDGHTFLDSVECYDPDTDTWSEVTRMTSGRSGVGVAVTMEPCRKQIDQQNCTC
Beta-galactosidase, sequence (Q8VNN2 whole entry, the tested form may be a part): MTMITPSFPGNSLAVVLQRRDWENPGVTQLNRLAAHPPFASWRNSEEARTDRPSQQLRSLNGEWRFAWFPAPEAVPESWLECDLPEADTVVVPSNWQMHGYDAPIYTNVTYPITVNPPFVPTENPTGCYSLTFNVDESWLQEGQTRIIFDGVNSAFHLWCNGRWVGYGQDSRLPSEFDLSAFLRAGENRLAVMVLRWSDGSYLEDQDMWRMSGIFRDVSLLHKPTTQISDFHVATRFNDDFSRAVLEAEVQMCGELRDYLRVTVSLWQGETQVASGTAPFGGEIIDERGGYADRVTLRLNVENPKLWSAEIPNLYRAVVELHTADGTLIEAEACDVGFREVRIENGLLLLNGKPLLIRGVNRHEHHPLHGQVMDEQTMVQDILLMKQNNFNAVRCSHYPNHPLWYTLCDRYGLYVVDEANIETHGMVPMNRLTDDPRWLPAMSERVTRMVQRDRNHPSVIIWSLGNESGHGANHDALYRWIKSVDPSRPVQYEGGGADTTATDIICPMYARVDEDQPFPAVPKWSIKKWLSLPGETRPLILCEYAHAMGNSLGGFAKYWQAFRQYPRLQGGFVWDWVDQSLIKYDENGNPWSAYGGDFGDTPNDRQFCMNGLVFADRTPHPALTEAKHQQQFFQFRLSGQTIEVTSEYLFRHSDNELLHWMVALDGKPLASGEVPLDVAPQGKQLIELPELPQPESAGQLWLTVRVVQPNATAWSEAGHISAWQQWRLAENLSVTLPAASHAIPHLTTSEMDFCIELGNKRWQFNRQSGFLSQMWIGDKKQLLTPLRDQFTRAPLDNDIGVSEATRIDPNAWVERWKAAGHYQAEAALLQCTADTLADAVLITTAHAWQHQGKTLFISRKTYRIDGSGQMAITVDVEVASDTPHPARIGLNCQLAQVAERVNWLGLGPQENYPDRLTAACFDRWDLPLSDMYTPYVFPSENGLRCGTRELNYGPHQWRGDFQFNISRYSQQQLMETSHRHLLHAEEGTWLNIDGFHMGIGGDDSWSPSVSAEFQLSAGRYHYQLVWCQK
Apelin receptor, sequence (P35414 whole entry, the tested form may be a part): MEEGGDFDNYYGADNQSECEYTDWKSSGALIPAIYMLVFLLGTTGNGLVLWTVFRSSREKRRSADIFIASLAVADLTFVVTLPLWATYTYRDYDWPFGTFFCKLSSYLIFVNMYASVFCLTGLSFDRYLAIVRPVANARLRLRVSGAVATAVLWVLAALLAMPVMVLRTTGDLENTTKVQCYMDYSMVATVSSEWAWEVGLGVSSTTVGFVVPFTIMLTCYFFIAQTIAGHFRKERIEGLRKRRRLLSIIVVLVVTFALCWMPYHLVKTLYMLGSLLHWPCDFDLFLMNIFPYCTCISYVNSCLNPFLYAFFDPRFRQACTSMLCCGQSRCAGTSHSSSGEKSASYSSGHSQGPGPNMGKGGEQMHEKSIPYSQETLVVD

Consider `Cc1cccc(N2C(=O)NC(=O)/C(=C\C=C\c3ccco3)C2=O)c1`, for which the EC50 in the assay on BJ [1] is 4.02 µM (active); in the assay on BJ [2], 11.3 µM (active); with BJ [3], 4.93 µM (inconclusive); in assay [4], 3.62 µM (active). For the same molecule, the AC50 in assay [5] was 5.75 µM (active); in the assay with A-375 [6], 28.4 µM (active); in [7] it was 3.06 µM (active); in assay [8] it was 25.6 µM (active); in assay [9], 26.4 µM (active).

Turning to `O=c1cc(CN2CCCc3ccccc32)nc2sccn12`, the AC50 on Keap1/Nrf2 was 17.1 µM (active).

Turning to `CC(C)(C)c1ccc2c(c1)OC(C(=O)N/N=C\c1ccccn1)CO2` (configuration not stated), the IC50 was > 66.6 µM (inactive) at Beta-galactosidase and 28.8 µM (inactive) on Apelin receptor.

For the molecule `O=C1C(Cl)=C(Nc2ccccc2)C(=O)c2ccccc21`, the EC50 is 8.47 µM (active) in assay [10] and 4.77 µM (active) in [11]. Also, the concentration at half-maximal activity (AC50) in assay [12] is 0.779 µM (active); in [5], 2.88 µM (active); in the assay with A-375 [13], 4.17 µM (active).
